Entries after “also recorded” stand apart in the source; their conditions may differ. Read-outs that look alike come from different tables or passages of the source.
Assays:
isolated rabbit vagina = experiment: Relaxation of precontracted (1 μM phenylephrine) isolated rabbit vaginal strips; type: cell-based
Experimental: 3.7 (a). Rabbit vagina in vitro preparation:—Female New Zealand white rabbits (2.0-3.0 kg) were killed by cervical dislocation. The abdominal cavity was opened and the vagina excised. Tissue strips were mounted longitudinally in Wesley Co. 5 ml silanised organ chambers with braided silk sutures (6/0 gauge) at an initial resting tension of 1.5 g in Krebs bicarbonate buffer maintained at 37° C. and gassed with 95%O2/5%CO2. The upper ligature of each tissue strip was attached to a 10 g capacity force-displacement transducer and changes in isometric force were measured and recorded using a DART in vitro data capture system. Tissues were allowed to equilibrate for 1.5 hours and were regularly washed with Krebs.
Each tissue was contracted using 1 μM bath concentration of phenylephrine. […] Tissues then received either a test agent (eg NEP or PDE inhibitor) or DMSO vehicle (time matched control).
For the purpose of curve fitting the minimum relaxation response was constrained to 0% and the maximum relaxation response was allowed to free fit.

[1] = system: anaesthetised rabbit model of sexual arousal; experiment: Increase in vaginal blood flow after iv infusion of vasoactive agents, anaesthetised rabbit model of sexual arousal (laser Doppler); type: in vivo
Excerpt: (§1) A ventral midline incision was made, at the caudal end of the pubis, to expose the pubic area. Connective tissue was removed to expose the tunica of the clitoris, ensuring that the wall was free from small blood vessels. The external vaginal wall was also exposed by removing any connective tissue. One laser Doppler flow probe was inserted 3 cm into the vagina, so that half the probe shaft was still visible. A second probe was positioned so that it lay just above the external clitoral wall. The position of these probes was then adjusted until a signal was obtained. A second probe was placed just above the surface of a blood vessel on the external vaginal wall. Both probes were clamped in position.
(§2) Vaginal and clitoral blood flow was recorded either as numbers directly from the Flowmeter using Po-ne-mah data acquisition software (Ponemah Physiology Platform, Gould Instrument Systems Inc), or indirectly from Gould chart recorder trace. Calibration was set at the beginning of the experiment (0-125 ml/min/100 g tissue).
An initial infusion of Hepsaline (50UI/ml) was infused to act as a negative control.

[2] = system: human vaginal smooth muscles cell cultures; conditions: VIP 0.5 μM; Traish 1999; cited from earlier work
anaesthetised rabbit = system: anaesthetised rabbit
Experimental: Female New Zealand rabbits (˜2.5 kg) were pre-medicated with a combination of Medetomidine (Domitor®) 0.5 ml/kg i.m., and Ketamine (Vetalar®) 0.25 ml/kg i.m. whilst maintaining oxygen intake via a face mask. The rabbits were tracheotomised using a Portex™ uncuffed endotracheal tube 3 ID., connected to ventilator and maintained at a ventilation rate of 30-40 breaths per minute, with an approximate tidal volume of 18-20 ml, and a maximum airway pressure of 10 cm H2O. Anaesthesia was then switched to Isoflurane and ventilation continued with O2 at 2 l/min. The right marginal ear vein was cannulated using a 23G or 24G catheter, and Lactated Ringer solution perfused at 0.5 ml/min. The rabbit was maintained at 3% Isoflurane during invasive surgery, dropping to 2% for maintenance anaesthesia.
The left groin area of the rabbit was shaved and a vertical incision was made approximately 5 cm in length along the thigh. The femoral vein and artery were exposed, isolated and then cannulated with a PVC catheter (17G) for the infusion of drugs and compounds. Cannulation was repeated for the femoral artery, inserting the catheter to a depth of 10 cm to ensure that the catheter reached the abdominal aorta. This arterial catheter was linked to a Gould system to record blood pressure. Samples for blood gas analysis were also taken via the arterial catheter. Systolic and diastolic pressures were measured, and the mean arterial pressure calculated using the formula (diastolic x2÷systolic)+3. Heart rate was measured via the pulse oxymeter and Po-ne-mah data acquisition software system (Ponemah Physiology Platform, Gould Instrument Systems Inc).

[3] = system: anaesthetised rabbit model of sexual arousal; experiment: Increase in clitoral blood flow after iv infusion of vasoactive agents, anaesthetised rabbit model; type: in vivo; conditions: VIP 200 μg/kg iv infusion
Excerpt: as §1, §2

**Q.** What does the source list for `CC[C@H](C)[C@H](NC(=O)[C@H](CO)NC(=O)[C@H](CC(N)=O)NC(=O)[C@H](CC(C)C)NC(=O)[C@H](Cc1ccc(O)cc1)NC(=O)[C@H](CCCCN)NC(=O)[C@H](CCCCN)NC(=O)[C@@H](NC(=O)[C@H](C)NC(=O)[C@H](CCSC)NC(=O)[C@H](CCC(N)=O)NC(=O)[C@H](CCCCN)NC(=O)[C@H](CCCNC(=N)N)NC(=O)[C@H](CC(C)C)NC(=O)[C@H](CCCNC(=N)N)NC(=O)[C@@H](NC(=O)[C@H](Cc1ccc(O)cc1)NC(=O)[C@H](CC(N)=O)NC(=O)[C@H](CC(=O)O)NC(=O)[C@@H](NC(=O)[C@H](Cc1ccccc1)NC(=O)[C@@H](NC(=O)[C@H](C)NC(=O)[C@H](CC(=O)O)NC(=O)[C@H](CO)NC(=O)[C@@H](N)Cc1c[nH]cn1)C(C)C)[C@@H](C)O)[C@@H](C)O)C(C)C)C(=O)N[C@@H](CC(C)C)C(=O)N[C@@H](CC(N)=O)C(N)=O` [VIP, Vasoactive intestinal peptide]?
**A.** relaxation of precontracted isolated vagina (isolated rabbit vagina; VIP 0.1 μM): circa 80%; EC50 (isolated rabbit vagina; precontracted with 1 μM phenylephrine, read-out: EC50 for relaxation in isolated vaginal tissue): 18.8 ± 0.6 nM; increase in vaginal blood flow ([1]; VIP 60 μg/kg intravenous): 24.7±3.6 ml/min/100 g tissue; time blood flow remained elevated above basal post-infusion ([1]; VIP 60 μg/kg intravenous): about 11 minutes; increase in vaginal blood flow ([1]; VIP 6.0 g/kg (so in the source)): 7.5±1.3 ml/min/100 g tissue; effect on cAMP levels in vaginal smooth muscle cell cultures [2]: no effect; also recorded: fails to elevate; increase in heart rate (anaesthetised rabbit; VIP 6.0 μg/kg iv): 16±4 beats per minute; reduction in mean arterial blood pressure (anaesthetised rabbit; VIP 6.0 μg/kg iv): 13.2±0.7 mm Hg; increase in heart rate (anaesthetised rabbit; VIP 60.0 μg/kg iv): 111±30 beats per minute; reduction in mean arterial blood pressure (anaesthetised rabbit; VIP 60.0 μg/kg iv): 14.7±1.37 mm Hg; subsequent increase in mean arterial blood pressure (anaesthetised rabbit; VIP 60.0 μg/kg iv, following heart rate increase): 8.5±1.4 mm Hg; effect on mean arterial blood pressure (anaesthetised rabbit; anaesthetised rabbit): significant depression; increase in clitoral blood flow [3]: 115%
